Results as given in PubChem BioAssay AID1963970 (Molecular Pharmacology Branch, DTP, NCI, 2024).
pIC50: −log10 of the molar value. Values belong to the molecule of their own block, whether it stands above or below them.

Test system: 931267-113-T-J1-PDC multicell spheroid viability
Assay: Anticancer human tumor 931267-113-T-J1-PDC patient-derived colon adenocarcinoma cell line growth inhibition [PI3K]
Conditions: for pIC50: curve of first compound; for viability, T/C: stronger effect = lower value
Method in brief: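 Tumor cells were combined with HUVEC and MSCs into spheroids, then dosed with PI3K-inhibitor combinations over half-log ranges capped near clinical Cmax or 10 microM.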

[1] = second compound 0.00316 µM, first compound 0.0316 µM
[2] = second compound 0.00316 µM, first compound 0.1 µM
[3] = second compound 0.00316 µM, first compound 0.316 µM
[4] = second compound 0.00316 µM, first compound 1 µM
[5] = second compound 0.00316 µM, first compound 3.16 µM
[6] = second compound 0.00316 µM, first compound 10 µM
[7] = second compound 0.01 µM, first compound 0.0316 µM
[8] = second compound 0.01 µM, first compound 0.1 µM
[9] = second compound 0.01 µM, first compound 0.316 µM
[10] = second compound 0.01 µM, first compound 1 µM
[11] = second compound 0.01 µM, first compound 3.16 µM
[12] = second compound 0.01 µM, first compound 10 µM
[13] = second compound 0.0316 µM, first compound 0.0316 µM
[14] = second compound 0.0316 µM, first compound 0.1 µM
[15] = second compound 0.0316 µM, first compound 0.316 µM
[16] = second compound 0.0316 µM, first compound 1 µM
[17] = second compound 0.0316 µM, first compound 3.16 µM
[18] = second compound 0.0316 µM, first compound 10 µM
[19] = second compound 0.1 µM, first compound 0.0316 µM
[20] = second compound 0.1 µM, first compound 0.1 µM
[21] = second compound 0.1 µM, first compound 0.316 µM
[22] = second compound 0.1 µM, first compound 1 µM
[23] = second compound 0.1 µM, first compound 3.16 µM
[24] = second compound 0.1 µM, first compound 10 µM
[25] = second compound 0.316 µM, first compound 0.0316 µM
[26] = second compound 0.316 µM, first compound 0.1 µM
[27] = second compound 0.316 µM, first compound 0.316 µM
[28] = second compound 0.316 µM, first compound 1 µM
[29] = second compound 0.316 µM, first compound 3.16 µM
[30] = second compound 0.316 µM, first compound 10 µM
[31] = second compound 1 µM, first compound 0.0316 µM
[32] = second compound 1 µM, first compound 0.1 µM
[33] = second compound 1 µM, first compound 0.316 µM
[34] = second compound 1 µM, first compound 1 µM
[35] = second compound 1 µM, first compound 3.16 µM
[36] = second compound 1 µM, first compound 10 µM
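Note: viability read 7 days after compound addition.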

pIC50 (second compound 0.00316 µM): < 5.00 | pIC50 (second compound 0.01 µM): < 5.00 | pIC50 (second compound 0.0316 µM): < 5.00 | pIC50 (second compound 0.1 µM): < 5.00 | pIC50 (second compound 0.316 µM): > 7.50 | pIC50 (second compound 1 µM): > 7.50
SMILES: CC(Cn1ccc(-c2ccc(C#N)c(Cl)c2)n1)NC(=O)c1cc(C(C)O)[nH]n1 (stereo unspecified) + COc1c(OCCCN2CCOCC2)ccc2c3n(c(=NC(=O)c4cnc(N)nc4)nc12)CCN3
viability, T/C [1]: 95.4% | viability, T/C [2]: 96.7% | viability, T/C [3]: 104% | viability, T/C [4]: 99.4% | viability, T/C [5]: 99.8% | viability, T/C [6]: 104% | viability, T/C [7]: 89.7% | viability, T/C [8]: 102% | viability, T/C [9]: 97.8% | viability, T/C [10]: 100% | viability, T/C [11]: 92.5% | viability, T/C [12]: 85.9% | viability, T/C [13]: 91.8% | viability, T/C [14]: 96.4% | viability, T/C [15]: 78.6% | viability, T/C [16]: 82.5% | viability, T/C [17]: 78.4% | viability, T/C [18]: 70.5% | viability, T/C [19]: 68.8% | viability, T/C [20]: 72.5% | viability, T/C [21]: 64.9% | viability, T/C [22]: 65.4% | viability, T/C [23]: 65.3% | viability, T/C [24]: 63.1% | viability, T/C [25]: 47.5% | viability, T/C [26]: 44.1% | viability, T/C [27]: 45.3% | viability, T/C [28]: 42.4% | viability, T/C [29]: 47.7% | viability, T/C [30]: 37.9% | viability, T/C [31]: 32.5% | viability, T/C [32]: 34.4% | viability, T/C [33]: 30.9% | viability, T/C [34]: 32.5% | viability, T/C [35]: 34.5% | viability, T/C [36]: 29.5%

pIC50 (second compound 0.00316 µM): < 5.00 | pIC50 (second compound 0.01 µM): < 5.00 | pIC50 (second compound 0.0316 µM): < 5.00 | pIC50 (second compound 0.1 µM): 5.37 | pIC50 (second compound 0.316 µM): > 7.50 | pIC50 (second compound 1 µM): > 7.50
SMILES: CC1(C)CCC(Nc2ncc(C(F)(F)F)c(-c3c[nH]c4c(P(C)(C)=O)c(C#N)ccc34)n2)CN1 (stereo unspecified) + COc1c(OCCCN2CCOCC2)ccc2c3n(c(=NC(=O)c4cnc(N)nc4)nc12)CCN3
viability, T/C [1]: 92.5% | viability, T/C [2]: 94.2% | viability, T/C [3]: 91.6% | viability, T/C [4]: 81.2% | viability, T/C [5]: 76.5% | viability, T/C [6]: 69.3% | viability, T/C [7]: 97.3% | viability, T/C [8]: 89.5% | viability, T/C [9]: 81.5% | viability, T/C [10]: 83.5% | viability, T/C [11]: 77.3% | viability, T/C [12]: 61.5% | viability, T/C [13]: 81.6% | viability, T/C [14]: 78% | viability, T/C [15]: 77.6% | viability, T/C [16]: 67.1% | viability, T/C [17]: 70.6% | viability, T/C [18]: 55.2% | viability, T/C [19]: 64.5% | viability, T/C [20]: 66.1% | viability, T/C [21]: 60% | viability, T/C [22]: 58.2% | viability, T/C [23]: 55.5% | viability, T/C [24]: 39.8% | viability, T/C [25]: 47.3% | viability, T/C [26]: 44.8% | viability, T/C [27]: 41.2% | viability, T/C [28]: 41.5% | viability, T/C [29]: 40.6% | viability, T/C [30]: 33.5% | viability, T/C [31]: 33.8% | viability, T/C [32]: 30.1% | viability, T/C [33]: 30.2% | viability, T/C [34]: 28.3% | viability, T/C [35]: 30.5% | viability, T/C [36]: 20.9%

pIC50 (second compound 0.00316 µM): 5.42 | pIC50 (second compound 0.01 µM): 5.56 | pIC50 (second compound 0.0316 µM): 5.91 | pIC50 (second compound 0.1 µM): 6.38 | pIC50 (second compound 0.316 µM): > 7.50 | pIC50 (second compound 1 µM): > 7.50
SMILES: Cn1nccc1Nc1nccc(-c2ccn(C(CO)c3ccc(Cl)c(F)c3)c(=O)c2)n1 (stereo unspecified) + COc1c(OCCCN2CCOCC2)ccc2c3n(c(=NC(=O)c4cnc(N)nc4)nc12)CCN3
viability, T/C [1]: 94.7% | viability, T/C [2]: 82.3% | viability, T/C [3]: 83.2% | viability, T/C [4]: 77.4% | viability, T/C [5]: 52.2% | viability, T/C [6]: 32.1% | viability, T/C [7]: 97.6% | viability, T/C [8]: 98% | viability, T/C [9]: 79.2% | viability, T/C [10]: 67.5% | viability, T/C [11]: 48.5% | viability, T/C [12]: 22.4% | viability, T/C [13]: 79.7% | viability, T/C [14]: 77% | viability, T/C [15]: 68% | viability, T/C [16]: 55.6% | viability, T/C [17]: 30.6% | viability, T/C [18]: 16.1% | viability, T/C [19]: 70% | viability, T/C [20]: 67.4% | viability, T/C [21]: 52.4% | viability, T/C [22]: 37.4% | viability, T/C [23]: 21.9% | viability, T/C [24]: 10.3% | viability, T/C [25]: 42.7% | viability, T/C [26]: 40.2% | viability, T/C [27]: 35% | viability, T/C [28]: 23.7% | viability, T/C [29]: 13.8% | viability, T/C [30]: 6.64% | viability, T/C [31]: 32.7% | viability, T/C [32]: 29.6% | viability, T/C [33]: 27.3% | viability, T/C [34]: 18.4% | viability, T/C [35]: 9.42% | viability, T/C [36]: 5.13%
